± gives the standard deviation of the averaged measurements.
Columns and labels:
[1] = compound: CCn1c(C(=O)N(C2CC2)C2CC2)cc2c3c(ncn3C)c(Nc3cc(C)n(C)n3)nc21; assay: surviving fraction relative to DMSO-only wells; higher = less growth inhibition; details: exposure time: 5 days
How it was run: (§1)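 Inhibitors at 0.5, 1, 5, 10, 50, 100, 500 and 1000 nM were applied continuously for five days to tumour cell lines seeded in log phase at 250–500 cells per well in 384-well plates 24 hours earlier. Viability was measured by CellTiter-Glo luminescence and expressed as surviving fraction relative to the median of DMSO-only wells. Luminescence was taken after 10 minutes at room temperature.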

[2] = compound: C[C@]12CC[C@H](O)CC1=CC[C@@H]1[C@@H]2CC[C@]2(C)C(c3cccnc3)=CC[C@@H]12 [ABIRATERONE]; assay: as above; details: exposure time: 5 days
How it was run: as §1

Test System | surviving fraction ([1]; 0.5 nM) | surviving fraction ([1]; 1 nM) | surviving fraction ([1]; 5 nM) | surviving fraction ([1]; 10 nM) | surviving fraction ([1]; 50 nM) | surviving fraction ([1]; 100 nM) | surviving fraction ([1]; 500 nM) | surviving fraction ([1]; 1000 nM) | surviving fraction ([2]; 0.5 nM) | surviving fraction ([2]; 1 nM) | surviving fraction ([2]; 5 nM) | surviving fraction ([2]; 10 nM) | surviving fraction ([2]; 50 nM) | surviving fraction ([2]; 100 nM) | surviving fraction ([2]; 500 nM) | surviving fraction ([2]; 1000 nM)
22RV1 PROSTATE | 0.972 ± 0.044 | 1.03 ± 0.037 | 0.975 ± 0.019 | 1.02 ± 0.017 | 1.07 ± 0.031 | 1.03 ± 0.079 | 1.07 ± 0.018 | 1.08 ± 0.064 | 1.06 ± 0.047 | 1.09 ± 0.086 | 1.07 ± 0.062 | 1.09 ± 0.047 | 1.11 ± 0.029 | 1.09 ± 0.051 | 1.17 ± 0.067 | 1.08 ± 0.054
93VU HEADNECK | 0.879 ± 0.12 | 0.834 ± 0.051 | 1.05 ± 0.031 | 0.976 ± 0.029 | 1.06 ± 0.042 | 1.04 ± 0.1 | 0.832 ± 0.027 | 0.775 ± 0.11 | 1.2 ± 0.027 | 1.15 ± 0.12 | 1.12 ± 0.031 | 1.2 ± 0.024 | 1.32 ± 0.038 | 1.19 ± 0.056 | 1.17 ± 0.12 | 1.11 ± 0.12
143B BONE | 1 ± 0.0057 | 1 ± 0.03 | 1.02 ± 0.012 | 0.9945 ± 0.005 | 1.04 ± 0.025 | 1.02 ± 0.02 | 1.01 ± 0.026 | 1.023 ± 0.0099 | 1.04 ± 0.013 | 1.046 ± 0.005 | 1.05 ± 0.023 | 1.03 | 1.06 ± 0.035 | 1.07 ± 0.035 | 1.02 ± 0.012 | 1.01 ± 0.029
A549 LUNG | 0.956 ± 0.034 | 0.941 ± 0.018 | 0.949 ± 0.02 | 0.963 ± 0.022 | 0.958 ± 0.057 | 1.024 ± 0.0095 | 1 ± 0.084 | 1.02 ± 0.03 | 1.04 ± 0.05 | 1.03 ± 0.059 | 1.05 ± 0.01 | 1.04 ± 0.045 | 1.1 ± 0.049 | 1.11 ± 0.019 | 1.08 ± 0.12 | 1.09 ± 0.087
ASKA SYNOVIAL | 1.06 ± 0.071 | 0.998 ± 0.1 | 1.06 ± 0.064 | 1.05 ± 0.062 | 1.15 ± 0.092 | 1.11 ± 0.063 | 1.07 ± 0.057 | 0.953 ± 0.051 | 1.19 ± 0.076 | 1.19 ± 0.11 | 1.23 ± 0.076 | 1.11 ± 0.11 | 1.2 ± 0.059 | 1.28 ± 0.069 | 1.19 ± 0.099 | 1.04 ± 0.1
BT20 BREAST | 1.07 ± 0.032 | 0.999 ± 0.25 | 1.09 ± 0.24 | 1 ± 0.2 | 1.1 ± 0.26 | 1.07 ± 0.16 | 1.16 ± 0.22 | 1.24 ± 0.18 | 1.17 ± 0.082 | 1.04 ± 0.23 | 1.22 ± 0.11 | 1.21 ± 0.2 | 1.12 ± 0.23 | 1.14 ± 0.15 | 1.13 ± 0.16 | 1 ± 0.14
BT549 BREAST | 1.14 ± 0.22 | 1 ± 0.046 | 1.06 ± 0.11 | 1.18 ± 0.12 | 0.934 ± 0.19 | 0.965 ± 0.2 | 1.04 ± 0.1 | 0.887 ± 0.13 | 0.768 ± 0.079 | 1.07 ± 0.083 | 0.991 ± 0.012 | 1.02 ± 0.059 | 0.92 ± 0.067 | 1.15 ± 0.13 | 1.07 ± 0.038 | 1.2 ± 0.17
C33A CERVIX | 0.809 ± 0.035 | 0.801 ± 0.11 | 0.926 ± 0.082 | 1.03 ± 0.19 | 0.895 ± 0.049 | 1.08 ± 0.15 | 0.768 ± 0.025 | 0.657 ± 0.1 | 1.19 ± 0.19 | 1.13 ± 0.059 | 1.19 ± 0.063 | 1.03 ± 0.022 | 1.12 ± 0.08 | 1.17 ± 0.068 | 1.2 ± 0.027 | 1.06 ± 0.13
CADOES1 SOFT TISSUE | 0.958 ± 0.066 | 0.961 ± 0.061 | 0.905 ± 0.13 | 0.92 ± 0.068 | 0.889 ± 0.16 | 0.94 ± 0.026 | 0.913 ± 0.033 | 0.988 ± 0.091 | 0.958 ± 0.12 | 1.03 ± 0.061 | 0.978 ± 0.11 | 0.943 ± 0.04 | 1 ± 0.025 | 1.11 ± 0.055 | 1.04 ± 0.14 | 0.955 ± 0.061
CAL51 BREAST | 0.972 ± 0.049 | 0.985 ± 0.034 | 0.98 ± 0.036 | 0.976 ± 0.043 | 1.02 ± 0.043 | 1.06 ± 0.031 | 1.02 ± 0.034 | 0.99 ± 0.015 | 0.988 ± 0.068 | 0.984 ± 0.019 | 1.03 ± 0.043 | 0.964 ± 0.039 | 1.02 ± 0.048 | 1.04 ± 0.044 | 1.02 ± 0.048 | 1.02 ± 0.028
CAL72 BONE | 1.1 ± 0.015 | 1.11 ± 0.035 | 1.06 ± 0.019 | 1.035 ± 0.005 | 1.12 ± 0.022 | 1.16 ± 0.059 | 1.13 ± 0.028 | 1.1 ± 0.035 | 1.087 ± 0.0031 | 1.1 ± 0.023 | 1.09 ± 0.056 | 1.09 ± 0.043 | 1.16 ± 0.012 | 1.15 ± 0.019 | 1.13 ± 0.048 | 1.07 ± 0.027
CAL120 BREAST | 0.876 ± 0.038 | 0.911 ± 0.018 | 0.937 ± 0.036 | 0.924 ± 0.056 | 0.962 ± 0.0098 | 0.94 ± 0.036 | 0.941 ± 0.026 | 0.897 ± 0.012 | 0.954 ± 0.011 | 1 ± 0.015 | 1.01 ± 0.013 | 1.01 ± 0.011 | 1.04 ± 0.059 | 1.04 ± 0.041 | 1.05 ± 0.028 | 0.988 ± 0.037
CASKI CERVIX | 0.85 ± 0.039 | 0.932 ± 0.015 | 0.972 ± 0.055 | 0.946 ± 0.073 | 0.994 ± 0.049 | 1 ± 0.062 | 0.985 ± 0.029 | 1.04 ± 0.06 | 0.924 ± 0.015 | 0.884 ± 0.044 | 1.04 ± 0.1 | 1.03 ± 0.018 | 1.08 ± 0.027 | 1.1 ± 0.014 | 1.09 ± 0.032 | 1.11 ± 0.05
CHLA90 AUTONOMIC GANGLIA | 0.986 ± 0.026 | 0.944 ± 0.037 | 0.905 ± 0.032 | 0.918 ± 0.095 | 0.961 ± 0.011 | 0.975 ± 0.003 | 0.945 ± 0.065 | 0.968 ± 0.026 | 1.01 ± 0.064 | 1.07 ± 0.043 | 1.06 ± 0.023 | 1.05 ± 0.044 | 1.05 ± 0.052 | 0.993 ± 0.096 | 1.08 ± 0.017 | 1.09 ± 0.05
CME SYNOVIAL | 1.27 ± 0.18 | 1.22 ± 0.11 | 1.29 ± 0.15 | 1.22 ± 0.064 | 1.294 ± 0.004 | 1.22 ± 0.072 | 1.21 ± 0.11 | 1.09 ± 0.06 | 1.28 ± 0.1 | 1.38 ± 0.15 | 1.43 ± 0.15 | 1.29 ± 0.086 | 1.37 ± 0.17 | 1.37 ± 0.029 | 1.34 ± 0.18 | 1.2 ± 0.18
COLO320DM LARGE INTESTINE | 1.03 ± 0.053 | 1.11 ± 0.0081 | 1.15 ± 0.1 | 1.08 ± 0.11 | 1.17 ± 0.14 | 1.18 ± 0.095 | 1.14 ± 0.063 | 1.27 ± 0.22 | 1.13 ± 0.084 | 1.09 ± 0.033 | 1.11 ± 0.07 | 1.17 ± 0.057 | 1.26 ± 0.19 | 1.1 ± 0.062 | 1.2 ± 0.38 | 1.02 ± 0.027

From the supplement of paper PMC6045584
